Reference: PMC7899551, “Phase 1 study of Z-endoxifen in patients with advanced gynecologic, desmoid, and hormone receptor-positive solid tumors” (Oncotarget, 2021)
“And” between values parts separate entries of the source, which are not always exact repeats. Equal values may be shown once.

Columns and labels:
ERβ = conditions: cited from earlier work
ERα = conditions: cited from earlier work
[1] = Plasma pharmacokinetics of Z-endoxifen (HPLC assay, non-compartmental analysis); format: in vivo, human
Description: This was an open-label trial of Z-endoxifen in patients with advanced solid tumors (https://clinicaltrials.gov/ identifier: NCT01273168). Z-endoxifen-HCl was supplied by the Pharmaceutical Management Branch, National Cancer Institute, as 20 and 40 mg capsules; agent was administered orally once daily on a continuous schedule in 28-day cycles with a starting dose of 20 mg/day taken either 1 hour before or 2 hours after meals. Dose escalation followed a traditional 3+3 design in which patients were dose-escalated to the next dose level (DL) in cohorts of 3 patients until dose-limiting toxicity (DLT) was observed. DLT was defined as an adverse event that occurred during cycle 1, was thought to be related to study drug administration, and met one of the following criteria: grade ≥ 3 non-hematologic toxicities (except diarrhea, nausea and vomiting, alopecia, rising creatinine or electrolyte toxicities that resolved within 24 hours, or intolerable estrogen withdrawal symptoms) or grade ≥ 3 hematologic toxicities (except neutropenia lasting less than 5 days, lymphopenia, or anemia). Eight dose levels (DL1-8) were examined: 20, 40, 60, 100, 140, 200, 280, and 360 mg, respectively. Two patients at DL8 received the free base form of Z-endoxifen on day 1 rather than the hydrochloride salt to assess the pharmacokinetics of that formulation.
A 3-mL blood sample was collected in a K2 EDTA tube on day 1 of cycle 1 before drug administration and at the following times post-first dose: 0.5, 1, 2, 3, 4, 6, 8, and 24 hours. Samples were collected at the same time points on day 28 of cycle 1 for DL1-6 until a protocol amendment eliminated the requirement for these samples at the higher dose levels. Samples were wrapped in aluminum foil after collection to protect from light exposure. A 10-mL aliquot of urine was collected before agent administration on cycle 1 day 1, for 24 hours after dosing on day 1, and before drug administration on cycle 2 day 1; samples were refrigerated prior to analysis.
Plasma and urine concentrations of Z- and E-endoxifen were measured using a validated, post-column fluorescence derivatization HPLC assay. Non-compartmental pharmacokinetic parameters were calculated using WinNonlin version 7.0 (Pharsight Corp., Mountainview, CA, USA). A 2 μM Cmax target was established for day 28 plasma concentration. The amount of Z-endoxifen excreted in urine was measured over a 24-hour collection period.

ovarian cancer = conditions: patients with ovarian cancer; cited from earlier work
[2] = tested on: metastatic ER+ breast cancer; conditions: women with metastatic ER+ breast cancer; cited from earlier work
[3] = tested on: hormone-refractory prostate cancer; conditions: 200 mg/m^2/day, men with hormone-refractory prostate cancer; cited from earlier work
[4] = free base, 360 mg oral, day 1, mean of patients 35 and 36
[5] = free base, 360 mg oral, day 1, patients 35 and 36 individually

4-hydroxy-tamoxifen
binding affinity relative to tamoxifen or NDM-tamoxifen (ERβ): approximately 100 fold | binding affinity relative to tamoxifen or NDM-tamoxifen (ERα): approximately 100 fold

CC/C(=C(/c1ccc(O)cc1)c1ccc(OCCNC)cc1)c1ccccc1 [E-endoxifen]
Plasma concentration as percentage of Z-endoxifen levels ([1]; after oral Z-endoxifen): < 2%

CC/C(=C(\c1ccc(O)cc1)c1ccc(OCCNC)cc1)c1ccccc1 [Endoxifen, 4-hydroxy-N-desmethyl-tamoxifen]
binding affinity relative to tamoxifen or NDM-tamoxifen (ERβ): approximately 100 fold | binding affinity relative to tamoxifen or NDM-tamoxifen (ERα): approximately 100 fold

CC/C(=C(\c1ccc(O)cc1)c1ccc(OCCNC)cc1)c1ccccc1 [free base form of Z-endoxifen]
AUC(0–24 h), Mean [1, 4]: 25248 ng·h/mL | C24 h, Mean [1, 4]: 790 ng/mL | Cmax, Mean [1, 4]: 1770 ng/mL | Tmax, Mean [1, 4]: 5.0 h | AUC(0–24 h) [1, 5]: 8959 ng·h/mL and 41537 ng·h/mL | C24h [1, 5]: 12 ng/mL and 1568 ng/mL | Tmax [1, 5]: 6.0 h and 4.0 h

CC/C(=C(\c1ccccc1)c1ccc(OCCN(C)C)cc1)c1ccccc1 [tamoxifen]
complete responses (ovarian cancer): 4% | partial responses (ovarian cancer): 9% | stable disease (ovarian cancer): 38% | women deriving benefit [2]: about 50% | mean plasma tamoxifen concentration [3]: 2.94 (± 1.15) μM
